Source: US20230365602A1, “COMPOUND FOR USE IN THE TREATMENT OF PROTOZOAL DISEASES AND PROCESS FOR PRODUCTION OF SAID COMPOUND” (QUADREL S.R.L., priority 2020, published 2023)
In brackets after ≈: the same amount, converted by molar mass. Several values for one entry are separate records, joined by “and”; a condition that tells them apart may be missing. Identical values can stand only once. Like-named read-outs stand apart in the source and are kept apart here.

Key:
[1] = system: L. infantum (MHOM/MA/67/ITMAP-263) intracellular amastigotes; experiment: Anti-parasitic activity against L. infantum intracellular amastigotes (infection with axenic amastigotes luciferase positive); format: cell-based; conditions: Leishmania infantum
[2] = Toxicity MTT assay in PMA-differentiated THP-1 cells; format: cell-based, human; conditions: human, PMA-differentiated THP-1 cells (macrophages)
Excerpt: (§1) The in vitro antiparasitic activity against L. infantum (MHOM/MA/67/ITMAP-263) and the toxicity against THP-1 macrophages is presented in Table 1.

[3] = system: PMA-differentiated THP-1 cells; experiment: as above; format: cell-based, human; conditions: Table 5
Excerpt: as §1

[4] = system: L. infantum intracellular amastigotes LEM235; experiment: Anti-leishmanial activity, L. infantum LEM235 intracellular amastigotes; format: cell-based; conditions: Leishmania infantum; read-out: L. infantum intracellular amastigotes LEM235 IC50 ± SEM
Excerpt: (§2) The in vitro antiparasitic activity of compound 5-cyclopentadecylpentyl (2-(trimethylammonio)ethyl) phosphate (19) against L. infantum (2 species), L. amazonensis, L. donovani and L. major is presented in Table 3, as well as the toxicity against the human monocytic cell Line THP1 and PMA-differentiated THP-1 cells.

[5] = Cytotoxicity, Human Monocytic Cell Line THP1; format: cell-based
Excerpt: as §2

[6] = system: L. donovani 1SR intracellular amastigotes; experiment: Anti-leishmanial activity, L. donovani intracellular amastigotes; format: cell-based; conditions: Leishmania donovani; read-out: L. donovani 1SR intracellular amastigotes IC50 ± SEM
Excerpt: as §2

[7] = system: L. amazonensis intracellular amastigotes; experiment: Anti-leishmanial activity, L. amazonensis intracellular amastigotes; format: cell-based; conditions: Leishmania amazonensis
Excerpt: as §2

[8] = system: L. major SASKH intracellular amastigotes; experiment: Anti-leishmanial activity, L. major intracellular amastigotes; format: cell-based; conditions: Leishmania major; read-out: L. major SASKH intracellular amastigotes IC50 ± SEM
Excerpt: as §2

[9] = target: T1, CYP1A2 (Homo sapiens, UniProt P05177); experiment: Early toxicity: CYP1A2 inhibition; format: in vitro ADME; conditions: human, mean ± SD, Table 4a
T1 sequence (P05177 1-516): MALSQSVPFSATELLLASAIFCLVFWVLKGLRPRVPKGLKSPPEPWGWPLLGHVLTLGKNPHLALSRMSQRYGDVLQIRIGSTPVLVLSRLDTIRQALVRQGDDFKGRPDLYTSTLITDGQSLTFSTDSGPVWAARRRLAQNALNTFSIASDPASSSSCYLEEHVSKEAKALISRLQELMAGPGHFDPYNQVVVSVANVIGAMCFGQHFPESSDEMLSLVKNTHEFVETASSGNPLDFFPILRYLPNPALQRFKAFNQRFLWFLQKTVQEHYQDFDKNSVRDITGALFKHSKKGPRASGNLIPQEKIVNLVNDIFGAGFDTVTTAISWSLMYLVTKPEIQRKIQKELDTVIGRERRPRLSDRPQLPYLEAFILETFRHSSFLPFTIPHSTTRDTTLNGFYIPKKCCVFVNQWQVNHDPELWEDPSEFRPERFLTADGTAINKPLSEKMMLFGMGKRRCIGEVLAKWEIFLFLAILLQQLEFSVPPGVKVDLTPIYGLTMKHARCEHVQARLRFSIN

[10] = target: CYP2C9 (Homo sapiens, UniProt P11712); experiment: Early toxicity: CYP2C9 inhibition; format: in vitro ADME; conditions: 10 μM
[11] = target: CYP2C19 (Homo sapiens, UniProt P33261); experiment: Early toxicity: CYP2C19 inhibition; format: in vitro ADME; conditions: human, mean ± SD, Table 4a
[12] = system: A549; experiment: Early toxicity: A549 cell growth; format: cell-based
[13] = system: mitochondria; experiment: Early toxicity: mitochondrial toxicity; format: cell-based
[14] = target: HDAC6 (Homo sapiens, UniProt Q9UBN7); experiment: HDAC6 activity inhibition; format: biochemical; conditions: 10 μM
[15] = Apparent solubility by nephelometry; format: physicochemical; conditions: kinetic from dmso stock
[16] = Snapshot pharmacokinetics in plasma after oral gavage; format: in vivo, mice; conditions: mouse, in vivo, 20 mg/kg; for AUC(0-inf) / Cmax / Tmax / half-life: po
Experimental: Pharmacology of 5-cyclopentadecylpentyl (2-(trimethylammonio)ethyl) phosphate (19) in mice.
Blood samples were collected from the tail vein at 0, 0.5, 0.75, 1, 3, 24 and 72 hours into heparinized tubes. Moreover, biodistribution of the molecule, 72h after administration, was determined in several organs of the treated mice, namely brain, liver, spleen, kidney, heart and bone marrow. […] J Chromatogr B, 865: 55-62) by liquid chromatography mass spectrometry (LC-MS/MS).

[17] = system: Leishmania infantum; experiment: Efficacy in mice infected with Leishmania infantum, 10-day treatment; format: in vivo, BALB/c mice; conditions: 10 consecutive days
Experimental: (A) Experimental approach; (B) and (C) are graphic presentations of parasite burden in the spleen and the liver, respectively, evaluated by limiting dilution assay.
The treatments were reduced to 10 consecutive days at doses of 2.5, 5, 10 or 20 mg/Kg/day (FIG. 3).

[18] = system: T. b. brucei GVR35; experiment: Stage II HAT mice model, live imaging; format: in vivo
[19] = Gel formation in saline solutions of NaCl; format: physicochemical; conditions: same conditions
Experimental: This effect is more pronounced at concentrations between 7 and 40 mg/mL at a temperature range between 20° C. and 40° C., preferably at ambient temperature. The homogeneity of the product facilitates homogeneity of dosing, i.e, variability among doses is lower, easy administration of the compound and higher patient acceptability.

[20] = BALB/c (Compound 19), NMRI (miltefosine)

Sequence of CYP2C9 (P11712 whole entry): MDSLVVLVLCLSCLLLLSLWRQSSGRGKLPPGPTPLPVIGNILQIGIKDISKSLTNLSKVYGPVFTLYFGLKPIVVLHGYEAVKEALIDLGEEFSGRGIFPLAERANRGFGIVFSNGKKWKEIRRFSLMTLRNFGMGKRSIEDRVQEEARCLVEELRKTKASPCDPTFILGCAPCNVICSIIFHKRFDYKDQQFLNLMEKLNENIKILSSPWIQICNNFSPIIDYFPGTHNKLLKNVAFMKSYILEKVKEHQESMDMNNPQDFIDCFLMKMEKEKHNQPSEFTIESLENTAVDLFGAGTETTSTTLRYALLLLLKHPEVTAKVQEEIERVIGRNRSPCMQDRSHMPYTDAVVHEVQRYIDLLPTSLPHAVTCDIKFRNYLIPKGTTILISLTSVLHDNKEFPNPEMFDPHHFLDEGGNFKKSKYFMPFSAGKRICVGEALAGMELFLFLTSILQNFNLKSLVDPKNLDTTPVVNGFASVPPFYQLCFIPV
Sequence of HDAC6 (Q9UBN7 whole entry, species assumed): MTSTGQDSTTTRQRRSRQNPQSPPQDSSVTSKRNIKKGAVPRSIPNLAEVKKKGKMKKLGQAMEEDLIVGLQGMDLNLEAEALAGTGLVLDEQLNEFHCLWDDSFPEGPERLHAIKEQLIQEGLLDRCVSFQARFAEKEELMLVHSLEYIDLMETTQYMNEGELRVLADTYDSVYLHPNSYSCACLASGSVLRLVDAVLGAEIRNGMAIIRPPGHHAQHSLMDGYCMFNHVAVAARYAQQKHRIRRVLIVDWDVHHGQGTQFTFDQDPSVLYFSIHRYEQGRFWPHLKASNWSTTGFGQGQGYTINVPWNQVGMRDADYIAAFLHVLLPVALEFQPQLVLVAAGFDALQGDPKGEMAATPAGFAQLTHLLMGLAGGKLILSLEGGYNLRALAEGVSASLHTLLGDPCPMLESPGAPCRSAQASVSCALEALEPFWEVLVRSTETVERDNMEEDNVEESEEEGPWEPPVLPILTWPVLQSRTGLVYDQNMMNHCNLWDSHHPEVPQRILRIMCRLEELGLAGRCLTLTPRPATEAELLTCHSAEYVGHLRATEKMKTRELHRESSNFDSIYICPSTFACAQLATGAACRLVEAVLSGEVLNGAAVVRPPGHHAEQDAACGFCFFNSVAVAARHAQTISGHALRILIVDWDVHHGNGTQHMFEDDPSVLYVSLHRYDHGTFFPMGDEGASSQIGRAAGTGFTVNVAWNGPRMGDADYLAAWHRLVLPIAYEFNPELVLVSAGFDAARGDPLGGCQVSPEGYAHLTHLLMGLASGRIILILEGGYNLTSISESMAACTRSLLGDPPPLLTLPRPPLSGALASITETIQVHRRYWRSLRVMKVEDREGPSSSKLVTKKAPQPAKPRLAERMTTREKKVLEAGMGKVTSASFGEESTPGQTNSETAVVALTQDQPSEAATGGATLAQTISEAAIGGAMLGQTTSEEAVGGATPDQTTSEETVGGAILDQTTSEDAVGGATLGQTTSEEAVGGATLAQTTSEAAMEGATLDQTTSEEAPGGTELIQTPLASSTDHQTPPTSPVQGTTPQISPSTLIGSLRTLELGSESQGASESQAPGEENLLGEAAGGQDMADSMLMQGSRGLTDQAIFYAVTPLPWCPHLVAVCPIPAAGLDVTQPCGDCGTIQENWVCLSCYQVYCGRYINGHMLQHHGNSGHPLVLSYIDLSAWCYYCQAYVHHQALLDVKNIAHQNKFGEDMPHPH
Sequence of CYP2C19 (P33261 whole entry): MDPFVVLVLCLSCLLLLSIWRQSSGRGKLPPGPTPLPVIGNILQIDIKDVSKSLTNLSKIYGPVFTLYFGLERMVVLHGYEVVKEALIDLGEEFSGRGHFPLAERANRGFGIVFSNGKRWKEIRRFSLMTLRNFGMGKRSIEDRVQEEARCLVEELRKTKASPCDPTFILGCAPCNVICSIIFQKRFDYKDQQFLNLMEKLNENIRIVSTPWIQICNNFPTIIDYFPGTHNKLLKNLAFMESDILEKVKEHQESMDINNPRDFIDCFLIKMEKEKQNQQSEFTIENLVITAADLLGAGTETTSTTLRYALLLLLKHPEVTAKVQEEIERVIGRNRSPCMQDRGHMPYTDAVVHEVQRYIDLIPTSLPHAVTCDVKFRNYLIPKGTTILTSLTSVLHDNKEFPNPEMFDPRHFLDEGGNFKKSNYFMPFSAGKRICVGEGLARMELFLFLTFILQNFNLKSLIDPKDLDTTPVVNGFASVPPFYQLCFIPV

Q: What does the source list for `CCCCCCCCCCCCCCCCOP(=O)([O-])OCC[N+](C)(C)C` [Miltefosine, hexadecylphosphocholine, reference compound]?
A: IC50 ([1]; read-out: Dose Response Curves IC50 ± SD (μM)): 2.51 ± 1.73 µM; IC50 ([1]; read-out: L. infantum intracellular amastigotes (MHOM/MA/67/ITMAP-263) IC50 ± SEM (μM)): 3.2 ± 1.4 µM; CC50 ([2]; THP-1 macrophages, Table 1, read-out: Toxicity CC50 ± SD or NOAEL): 15.9 ± 1.2 µM; IC50 ([2]; Table 4b, read-out: Cytotoxicity THP-1 (IC50)): 15.9 ± 1.2 µM; Toxicity MTT assay in PMA-differentiated THP-1 cells [3]: 15.9 ± 1.2 µM; IC50 [4]: 6.7 ± 1 µM; CC50 [5]: 28.6 ± 2.48 µM; IC50 [6]: 12.7 ± 3.3 µM; IC50 [7]: 14.2 µM; IC50 [8]: 43.7 ± 8.34 µM; inhibition at 10 µM [9]: -20.6 ± 11.8%; Avg % inhibition CYP2C9 ([10]; Table 5): −0.80 ± 38.33 (10 μM) %; % inhibition CYP2C9 ([10]; mean ± SD, Table 4a): −0.8 ± 38.32%; inhibition at 10 µM [11]: 7.92 ± 15.5%; Avg % Cell growth A549 ([12]; 10 μM, Table 5): 95.80 ± 15.78 (10 μM) %; % cell growth A549 ([12]; at 1 μM): 95.8 ± 15.78%; Ang % Toxicity Mitochondria ([13]; 10 μM, Table 5): 3.99 ± 8.95 (10 μM) %; % mitochondrial toxicity ([13]; at 1 μM): 3.39 ± 8.95%; inhibition of the activity of HDAC6 [14]: did not inhibit; solubility ([15]; pH 1.6, simulated gastric fluid): 12.5 µM (≈ 5.09 µg/mL); solubility ([15]; pH 5, fessif): > 100 µM; solubility ([15]; pH 6.5, fassif): > 100 µM; solubility ([15]; pH 7.4, aqueous buffer): 25 µM (≈ 10.2 µg/mL); solubility ([15]; water): 25 µM (≈ 10.2 µg/mL); AUC(0-inf) [16, 20]: 2.4e+06 ng·h/mL and 5960 µM·h; Cmax [16, 20]: 30600 ng/mL and 75.1 µM; Tmax [16, 20]: 24 h; half-life [16, 20]: 43.3 ± 5.5 h; Ke (h − 1) ([16]; BALB/c): 0.016 ± 0.002 h − 1; AUC(0-inf) ([16]; BALB/c): 2.4e+06 ng·h/mL and 5960 µM·h; Cmax ([16]; BALB/c): 30600 ng/mL and 75.1 µM; Tmax ([16]; BALB/c): 24 h; half-life ([16]; BALB/c): 43.3 ± 5.5 h; reduction of parasite burden, spleen ([17]; 2.5 mg/kg): 64±33%; reduction of parasite burden, spleen ([17]; 5 mg/kg): 70±36%; parasite burden in the spleen ([17]; 20 mg/kg and 10 mg/kg): not able to maintain parasite burden under the detection limit; average reduction of parasite load, spleen ([17]; 20 and 10 mg/kg): > 99%; reduction of average parasite burden, liver ([17]; all tested concentrations): more than 98%; infection outcome (words) ([18]; miltefosine treated animals, sacrificed after 7 treatments): no reduction in infection; weight loss associated to the treatment ([18]; miltefosine treated infected animals): constant weight loss; gel formation [19]: not observed
